Reference: patent publication US9765087B2, “Benzimidazole derivatives” (ENANTA PHARMACEUTICALS, INC., priority 2009, dated 2017)
Where two headings read alike, the source gives them in different places.

Tested on: HCV 1a genotype replicon
Experiment: HCV replicon assay (qRT-PCR or luciferase), genotype 1a
Format: cell-based
Details: Hepatitis C virus
Description: HCV replicon cell lines (kindly provided by R. Bartenschlager) isolated from colonies as described by Lohman et. al. (Lohman et al. (1999) Science 285: 110-113, expressly incorporated by reference in its entirety) and used for all experiments. The HCV replicon has the nucleic acid sequence set forth in EMBL Accession No.: AJ242651, the coding sequence of which is from nucleotides 1801 to 8406.
These cell lines were maintained at 37° C., 5% CO2, 100% relative humidity in DMEM (Cat#11965-084, Invitrogen), with 10% fetal calf serum (“FCS”, Invitrogen), 1% non-essential amino acids (Invitrogen), 1% of Glutamax (Invitrogen), 1% of 100× penicillin/streptomycin (Cat#15140-122, Invitrogen) and Geneticin (Cat#10131-027, Invitrogen) at 0.75 mg/ml or 0.5 mg/ml for 11-7 and Huh-luc/neo-ET cells, respectively.
EC50 values of single agent compounds and combinations were determined by HCV RNA detection using quantitative RT-PCR, according to the manufacturer's instructions, with a TAQMAN® One-Step RT-PCR Master Mix Reagents Kit (Cat#AB 4309169, Applied Biosystems) on an ABI Model 7500 thermocycler. The TaqMan primers used for detecting and quantifying HCV RNA were obtained from Integrated DNA Technologies. HCV RNA was normalized to GAPDH RNA levels in drug-treated cells, which is detected and quantified using the Human GAPDH Endogenous Control Mix (Applied Biosystems, AB 4310884E). Total cellular RNA is purified from 96-well plates using the RNAqueous 96 kit (Ambion, Cat# AM1812). Chemical agent cytotoxicity is evaluated using an MTS assay according to the manufacturer's directions (Promega).
Since clinical drug resistance often develops in viral infections following single agent therapies, there is a need to assess the additive, antagonistic, or synergistic properties of combination therapies. We used the HCV replicon system to assess the potential use of the compound of the present invention or in combination therapies with Interferon alpha, cyclosporine analogs and inhibitors targeting other HCV proteins. The acute effects of a single or combinations of drugs are studied in the “Huh-luc/neo-ET” replicon with each chemical agent titrated in an X or Y direction in a 6 point two-fold dilution curve centered around the EC50 of each drug. Briefly, replicon cells are seeded at 7,000 cells per well in 90 ul DMEM (without phenol red, Invitrogen Cat.#31053-036) per well with 10% FCS, 1% non-essential amino acids, 1% of Glutamax and 1% of 100× penicillin/streptomycin and incubated overnight at 37° C., 5% CO2, 100% relative humidity. 16-20 h after seeding cells, test compounds previously solubilized and titrated in dimethyl sulfoxide (“DMSO”) from each X plate and Y plate are diluted 1:100 in DMEM (without phenol red, Invitrogen Cat.#31053-036) with 10% FCS, 1% non-essential amino acids, 1% of Glutamax and 1% of 100× penicillin/streptomycin and added directly to the 96-well plate containing cells and growth medium at a 1:10 dilution for a final dilution of compound and DMSO of 1:1000 ([…] final concentration). Drug treated cells are incubated at 37° C., 5% CO2, 100% relative humidity for 72 hours before performing a luciferase assay using 100 ul per well BriteLite Plus (Perkin Elmer) according to the manufacturer's instructions. Data analysis utilizes the method published by Prichard and Shipman (Antiviral Research, 1990. 14:181-205). Using this method, the combination data are analyzed for antagonistic, additive, or synergistic combination effects across the entire combination surface created by the diluted compounds in combination.
The compounds of the present invention can be effective against the HCV 1b genotype. It should also be understood that the compounds of the present invention can inhibit multiple genotypes of HCV. In one embodiment compound of the present invention are active against the 1a, 1b, 2a, 2b, 3a, 4a, and 5a genotypes. […] EC50 ranges against HCV 1b and 1a are as follows: A>10 nM; B1-10 nM; C<1 nM.

[1] = Table 12, numeric values, read-out: 1a EC50
[2] = Table 12, range class, read-out: 1a EC50 Range

**Q.** With `COC(=O)N[C@H](C(=O)N1CC2(CC2)C[C@H]1c1nc2ccc(C#Cc3ccc(-c4cnc([C@@H]5CCCN5C(=O)[C@H](NC(=O)OC)c5cccs5)[nH]4)cc3)cc2[nH]1)C(C)C` [Example 663] as the molecule, how does the EC50 [1] read?
**A.** 0.295 nM

**Q.** How did the EC50 [2] turn out when `COC(=O)N[C@@H](C(=O)N1CC2(CC2)C[C@H]1c1ncc(-c2ccc(C#Cc3ccc4nc([C@@H]5CC6(CC6)CN5C(=O)[C@H](NC(=O)OC)c5cccs5)[nH]c4c3)cc2)[nH]1)c1cccs1` [Example 680] was run?
**A.** > 10 nM

**Q.** `COC(=O)N[C@@H](CCNC(N)=O)C(=O)N1CCC[C@H]1c1nc(-c2ccc(C#Cc3ccc4[nH]c([C@@H]5CC6(CC6)CN5C(=O)[C@@H](NC(=O)OC)C(C)C)nc4c3)cc2)c[nH]1` [Example 553] was tested. Which EC50 [2] did it give?
**A.** 1 to 10 nM

**Q.** With `COC(=O)N[C@H](C(=O)N1CC2(CC2)C[C@H]1c1nc2ccc(C#Cc3ccc(-c4cnc([C@@H]5CCCN5C(=O)[C@H](NC(=O)OC)c5ccoc5)[nH]4)cc3)cc2[nH]1)C(C)C` [Example 681] as the molecule, how does the EC50 [1] read?
**A.** 0.202 nM

**Q.** How did the EC50 [2] turn out when `COC(=O)N[C@H](C(=O)N1CC2(CC2)C[C@H]1c1ncc(-c2ccc(C#Cc3ccc4nc([C@@H]5CC6(CC6)CN5C(=O)[C@@H](NC(=O)OC)[C@@H](C)c5ccccc5)[nH]c4c3)cc2)[nH]1)C(C)C` [Example 668] was run?
**A.** < 1 nM

**Q.** Which EC50 [2] does the source give for `COC(=O)N[C@H](C(=O)N1CC2(CC2)C[C@H]1c1nc2ccc(C#Cc3ccc(-c4cnc([C@@H]5CCCN5C(=O)[C@H](NC(=O)OC)c5ccc(F)cc5)[nH]4)cc3)cc2[nH]1)C(C)C` [Example 664] here?
**A.** < 1 nM

**Q.** How did the EC50 [2] turn out when `COC(=O)N[C@H](C(=O)N1CC2(CC2)C[C@H]1c1nc2ccc(C#Cc3ccc(-c4cnc([C@@H]5CCCN5C(=O)[C@H](NC(=O)OC)[C@H](C)c5ccccc5)[nH]4)cc3)cc2[nH]1)C(C)C` [Example 604] was run?
**A.** > 10 nM

**Q.** `COC(=O)N[C@H](C(=O)N1CC2(CC2)C[C@H]1c1nc2ccc(C#Cc3ccc(-c4cnc([C@@H]5C[C@H]6C[C@H]6N5C(=O)[C@H](NC(=O)OC)c5cc(F)cc(F)c5)[nH]4)cc3)cc2[nH]1)C(C)C` [Example 683] was tested. Which EC50 [2] did it give?
**A.** < 1 nM

**Q.** `COC(=O)N[C@H](C(=O)N1CC2(CC2)C[C@H]1c1ncc(-c2ccc(C#Cc3ccc4nc([C@@H]5C[C@H]6C[C@H]6N5C(=O)[C@H](NC(=O)OC)c5ccccc5)[nH]c4c3)cc2)[nH]1)C(C)C` [Example 586] was tested. Which EC50 [2] did it give?
**A.** < 1 nM

**Q.** `COC(=O)N[C@H](C(=O)N1CC2(CC2)C[C@H]1c1nc(-c2cccnc2)c(-c2ccc(C#Cc3ccc4nc([C@@H]5CC6(CC6)CN5C(=O)[C@@H](NC(=O)OC)C(C)C)[nH]c4c3)cc2)[nH]1)C(C)C` [Example 662] was tested. Which EC50 [2] did it give?
**A.** < 1 nM

**Q.** Which EC50 [2] does the source give for `COC(=O)N[C@H](C(=O)N1CC2(CC2)C[C@H]1c1nc(-c2ccc(C#Cc3ccc4[nH]c([C@@H]5CC6(CC6)CN5C(=O)[C@@H](NC(=O)OC)C(C)C)nc4c3)cc2)c(C2CC2)[nH]1)C(C)C` [Example 591] here?
**A.** < 1 nM

**Q.** For `COC(=O)N[C@H](C(=O)N1CC2(CC2)C[C@H]1c1ncc(-c2ccc(C#Cc3ccc4nc([C@@H]5CC6(CC6)CN5C(=O)[C@@H](NC(=O)OC)C5CC5)[nH]c4c3)cc2)[nH]1)C(C)C` [Example 602], which EC50 [2] is on record?
**A.** < 1 nM

**Q.** For `CC[C@@H](C)[C@H](NC(=O)OC)C(=O)N1CCC[C@H]1c1ncc(-c2ccc(C#Cc3ccc4nc([C@@H]5CC6(CC6)CN5C(=O)[C@@H](NC(=O)OC)C(C)C)[nH]c4c3)cc2)[nH]1` [Example 605], which EC50 [2] is on record?
**A.** < 1 nM

**Q.** With `COC(=O)N[C@H](C(=O)N1CC2(CC2)C[C@H]1c1nc2ccc(C#Cc3ccc(-c4cnc([C@@H]5C[C@@H](C)CN5C(=O)[C@H](NC(=O)OC)c5ccccc5)[nH]4)cc3)cc2[nH]1)C(C)C` [Example 671] as the molecule, how does the EC50 [2] read?
**A.** < 1 nM

**Q.** With `COCC(COC)[C@H](NC(=O)OC)C(=O)N1CC2(CC2)C[C@H]1c1nc2ccc(C#Cc3ccc(-c4cnc([C@@H]5CC6(CC6)CN5C(=O)[C@@H](NC(=O)OC)C(C)C)[nH]4)cc3)cc2[nH]1` [Example 670] as the molecule, how does the EC50 [2] read?
**A.** < 1 nM

**Q.** With `COC(=O)N[C@H](C(=O)N1CC2(CC2)C[C@H]1c1ncc(-c2ccc(C#Cc3ccc4nc([C@@H]5CC6(CC6)CN5C(=O)[C@H](NC(=O)OC)c5cccc(Cl)c5)[nH]c4c3)cc2)[nH]1)C(C)C` [Example 584] as the molecule, how does the EC50 [2] read?
**A.** < 1 nM

**Q.** `CC[C@H](NC(=O)OC)C(=O)N1CC2(CC2)C[C@H]1c1ncc(-c2ccc(C#Cc3ccc4nc([C@@H]5CC6(CC6)CN5C(=O)[C@H](CC)NC(=O)OC)[nH]c4c3)cc2)[nH]1` [Example 655] was tested. Which EC50 [1] did it give?
**A.** 0.034 nM

**Q.** With `COC(=O)N[C@H](C(=O)N1CC2(CC2)C[C@H]1c1ncc(-c2ccc(C#Cc3ccc4nc([C@@H]5CC6(CC6)CN5C(=O)[C@@H](NC(=O)OC)c5ccccc5)[nH]c4c3)cc2)[nH]1)c1ccccc1` [Example 609] as the molecule, how does the EC50 [2] read?
**A.** 1 to 10 nM

**Q.** `COC(=O)N[C@H](C(=O)N1CC2(CC2)C[C@H]1c1nc2ccc(C#Cc3ccc(-c4cnc([C@@H]5C[C@H]6C[C@H]6N5C(=O)[C@H](NC(=O)OC)c5ccccc5)[nH]4)cc3)cc2[nH]1)C(C)C` [Example 659] was tested. Which EC50 [2] did it give?
**A.** < 1 nM

**Q.** How did the EC50 [2] turn out when `COC(=O)N[C@H](C(=O)N1CC2(CC2)C[C@H]1c1nc2ccc(C#Cc3ccc(-c4cnc([C@@H]5CC6(CC6)CN5C(=O)[C@@H](N)C(C)C)[nH]4)cc3)cc2[nH]1)C(C)C` [Example 624] was run?
**A.** > 10 nM

**Q.** `COC(=O)N[C@H](C(=O)N1CC2(CC2)C[C@H]1c1ncc(-c2ccc(C#Cc3ccc4nc([C@@H]5CC6(CC6)CN5C(=O)[C@H](NC(=O)OC)C5CCCCC5)[nH]c4c3)cc2)[nH]1)C(C)C` [Example 667] was tested. Which EC50 [2] did it give?
**A.** 1 to 10 nM

**Q.** For `COC(=O)N[C@H](C(=O)N1CC2(CC2)C[C@H]1c1nc2ccc(C#Cc3ccc(-c4cnc([C@@H]5CCCN5C(=O)[C@@H](NC(=O)OC)[C@@H](C)c5ccccc5)[nH]4)cc3)cc2[nH]1)C(C)C` (stereo in doubt) [Example 672], which EC50 [2] is on record?
**A.** < 1 nM

**Q.** `COC(=O)N[C@H](C(=O)N1CC2(CC2)C[C@H]1c1ncc(-c2ccc(C#Cc3ccc4nc([C@@H]5CC6(CC6)CN5C(=O)[C@H](NC(=O)OC)c5ccccc5F)[nH]c4c3)cc2)[nH]1)C(C)C` [Example 652] was tested. Which EC50 [2] did it give?
**A.** < 1 nM

**Q.** How did the EC50 [2] turn out when `COC(=O)N[C@H](C(=O)N1CC2(CC2)C[C@H]1c1ncc(-c2ccc(C#Cc3ccc4nc([C@@H]5CC6(CC6)CN5C(=O)[C@H](NC(=O)OC)[C@H](C)c5ccccc5)[nH]c4c3)cc2)[nH]1)C(C)C` [Example 601] was run?
**A.** > 10 nM

**Q.** `COC(=O)N[C@@H](CC(N)=O)C(=O)N1CCC[C@H]1c1ncc(-c2ccc(C#Cc3ccc4nc([C@@H]5CC6(CC6)CN5C(=O)[C@@H](NC(=O)OC)C(C)C)[nH]c4c3)cc2)[nH]1` [Example 619] was tested. Which EC50 [1] did it give?
**A.** 0.699 nM

**Q.** `COC(=O)N[C@@H](C(=O)N1CC2(CC2)C[C@H]1c1ncc(-c2ccc(C#Cc3ccc4nc([C@@H]5CC6(CC6)CN5C(=O)[C@H](NC(=O)OC)c5cccc(F)c5)[nH]c4c3)cc2)[nH]1)c1cccc(F)c1` [Example 677] was tested. Which EC50 [2] did it give?
**A.** 1 to 10 nM

**Q.** `COC(=O)N[C@H](C(=O)N1C[C@]2(CNC(=O)O2)C[C@H]1c1ncc(-c2ccc(C#Cc3ccc4nc([C@@H]5CC6(CC6)CN5C(=O)[C@@H](NC(=O)OC)C(C)C)[nH]c4c3)cc2)[nH]1)C(C)C` [Example 617] was tested. Which EC50 (read-out: 1a EC50 Range, Table 12, range class) did it give?
**A.** 1 to 10 nM

**Q.** How did the EC50 [1] turn out when `COC(=O)N[C@H](C(=O)N1CC2(CC2)C[C@H]1c1ncc(-c2ccc(C#Cc3ccc4nc([C@@H]5CC6(CC6)CN5C(=O)[C@@H](NC(=O)OC)C5CCOCC5)[nH]c4c3)cc2)[nH]1)C(C)C` [Example 590] was run?
**A.** 0.017 nM

**Q.** Which EC50 [2] does the source give for `COC(=O)N[C@H](C(=O)N1CC2(CC2)C[C@H]1c1ncc(-c2ccc(C#Cc3ccc4nc([C@@H]5CC6(CC6)CN5C(=O)[C@H](NC(=O)OC)c5ccc(OC)cc5)[nH]c4c3)cc2)[nH]1)C(C)C` [Example 585] here?
**A.** 1 to 10 nM

**Q.** Which EC50 [2] does the source give for `COC(=O)N[C@H](C(=O)N1CCC[C@H]1c1nc(-c2ccc3cc(-c4ccc5[nH]c([C@@H]6CC7(CC7)CN6C(=O)[C@@H](NC(=O)OC)C(C)C)nc5c4)cc(F)c3c2)c[nH]1)C(C)C` [Example 608] here?
**A.** < 1 nM
